Earlier results on 26 molecules are cited in patent US20080275000A1, “COMPOSITIONS FOR REDUCING, AMELIORATING, TREATING, OR PREVENTING CONDITION OF DRY EYE AND METHODS OF MAKING AND USING SAME” (priority 2007, published 2008).

Like-named read-outs stand apart in the source and are kept apart here.

In general, pKa refers to the negative logarithm of the acid dissociation constant.

The conditions of data set [1]: buffering agent pH range.
[2] abbreviates: Table 1, only or first printed value.

For `CC(=O)C1C(=O)C=C(C)OC1=O` (centres unmarked) [dehydroacetic acid], the pKa under setting [2] is given as 5.40.
For the molecule `O=S(=O)(O)CCN1CCN(CCO)CC1` [HEPES, N-{2-hydroxyethyl}peperazine-N′-{2-ethanesulfonic acid}], the “pH in the range of” value in data set [1] was 6.8-8.2.
In the case of `O=C(O)c1cccnc1` [nicotinic acid], the pKa reads like this: (first listed value) 10.09; (fourth listed value) 2.86; (second listed value) 9.14; (third listed value) 6.92.
As to `CC1(C(=O)O)CCC(C(=O)O)C1(C)C` (stereo not drawn) [(+) camphoric acid], the pKa under setting [2] is 4.72.
With `O=C(O)CCCCCC(=O)O` [pimelic acid], the pKa (Table 1, second printed value) was 5.42.
Take `O=C(O)CN(CCN(CC(=O)O)CC(=O)O)CCN(CC(=O)O)CC(=O)O` [DTPA, diethylenetriaminepentaacetic acid]: under “bound stated for two pKa values”, the “two pKa values” is “greater than or equal to 6.30”.
Consider `O=C(O)[C@H]1CCC[C@H](C(=O)O)C1` (relative stereo) [1,3-trans-cyclohexanedicarboxylic acid], for which the pKa is, setting by setting: under setting [2], 4.18; (Table 1, second printed value) 5.93.
Consider `CCCC(=O)OO` [n-peroxybutyric acid], for which the pKa under setting [2] was 8.2.
For `O=COO` [peroxyformic acid], under setting [2], the pKa was 7.1.
`O=C(O)[C@@H]1CCC[C@H]1C(=O)O` (relative stereo) [1,2-trans-cyclopentanedicarboxylic acid]: the pKa reads like this: under setting [2], 3.89; (Table 1, second printed value) 5.91.
`CSCCN(CC(=O)O)CC(=O)O` [2-methylthioethyliminodiacetic acid]: the pKa is reported as 2.1 (first listed value) and 8.91 (second listed value).
For `CCCCOc1ccc(C(=O)O)cc1` [p-n-butoxybenzoic acid], under setting [2], the pKa was 4.53.
Turning to `CC(CC(=O)O)CC(=O)O` [β-methylglutaric acid], the pKa by setting is: under setting [2], 4.25; (Table 1, second printed value) 6.22.
Take `O=C(O)CC1(CC(=O)O)CCCC1` [1,1-cyclopentanediacetic acid]: the pKa under setting [2] is on record as 3.82 and the pKa (Table 1, second printed value) was 6.70.
Turning to `O=S(=O)(O)CCN(CCO)CCO` [BES, N,N-bis{2-hydroxyethyl}2-aminoethanesulfonic acid], in data set [1], the “pH in the range of” value is 6.4-7.8.
With `O=C(O)[C@H]1CC[C@H](C(=O)O)C1` (relative stereo) [1,3-trans-cyclopentanedicarboxylic acid], the pKa under setting [2] was 4.40 and the pKa (Table 1, second printed value) is reported as 5.45.
As for `O=C(O)CCCCCCCC(=O)O` [azelaic acid], the pKa (Table 1, second printed value) is listed as 5.41.
Regarding `O=C(O)CCCCCCC(=O)O` [suberic acid], the pKa is listed as 4.52 under setting [2] and 5.4 (Table 1, second printed value).
On to `O=C(O)CN(CCS(=O)(=O)O)CC(=O)O` [N-2-sulfoethyliminodiacetic acid], for which the pKa by setting is: (first listed value) 1.92; (second listed value) 2.28; (third listed value) 8.16.
Take `CC(=O)OO` [peroxyacetic acid]: the pKa under setting [2] is given as 8.2.
Turning to `COCCN(CC(=O)O)CC(=O)O` [2-methoxyethyliminodiacetic acid], the pKa reads like this: (first listed value) 2.2; (second listed value) 8.96.
In the case of `O=C(O)[C@H]1CC[C@@H](C(=O)O)CC1` [1,4-cis-cyclohexanedicarboxylic acid], the pKa is reported as 4.44 under setting [2] and 5.79 (Table 1, second printed value).
Take `O=C(O)CNCC(=O)O` [iminodiacetic acid]: the pKa by setting is: (first listed value) 2.98; (second listed value) 9.89.
In the case of `O=S(=O)(O)CCCN1CCOCC1` [MOPS, 3-{N-morpholino}propanesulfonic acid], in data set [1], the “pH in the range of” value is on record as 6.5-7.9.
Consider `CCCCC(=O)O` [valeric acid], for which the pKa under setting [2] is given as 4.85.
Consider `CCCOc1ccc(C(=O)O)cc1` [p-n-propoxybenzoic acid], for which the pKa under setting [2] is given as 4.46.
